Source: patent US11098018B2, “Potassium channel inhibitors” (ACESION PHARMA ApS, priority 2017, dated 2021)

Target: T1, human SK3 channel (hKCa0.2.3) (Homo sapiens, UniProt Q9UGI6)
T1 construct: expressed in transfected cells
Assay: Automated patch clamping (QPatch whole-cell)
Type: cell-based
Conditions: HEK-293 cells stably expressing human SK3; free calcium 400 nM; normalized to inhibitory effect of N-methyl bicuculline
Method: Automated whole cell patch-clamp recordings were performed using a QPatch 16 HT system and single-hole Qplates (Biolin Scientific, Sophion, Denmark) on HEK-293 cells stably expressing the human SK3 channel (hKCa0.2.3). Cells were cultured and prepared for experiments using normal cell culturing procedures. A total of 4-5 million cells were used per experiment. The Qpatch automatically generates giga sealing, whole-cell formation, compound application and recording of current. hKCa2.3 currents were recorded in symmetrical K^+ solutions, with an intracellular solution consisting of in mM: KCl 108; KOH/EGTA (ethylene glycol-bis(2-aminoethylether)-N,N,N′,N′-tetraacetic acid) 31.25/10; CaCl2) 8.1; MgCl2 1.2; HEPES (2-[4-(2-hydroxyethyl)piperazin-1-yl]ethanesulfonic acid) 10; KOH 15, pH adjusted to pH=7.2 with HCl. The free calcium concentration was calculated to 400 nM. The extracellular solution consisted of in mM: KCl 150; CaCl2) 0.1; MgCl2 3; HEPES 10; Glucose 10, pH=7.4 with KOH. The cells were held at 0 mV and hKCa0.2.3 currents were elicited by a linear voltage ramp from −80 mV to +80 mV (200 ms in duration) applied every 5th second. The compound application protocol consisted of 12 recording periods lasting from 50-200 s: 1) Baseline recordings in extracellular solution; 2) Application of the positive control N-methyl bicuculline (100 μM), which is characterized by full efficacy, fast on- and off-rate; 3-4) Wash-out; 5-9) Increasing concentrations of test compound to establish an IC50 value; 10-11) Wash-out; 12) positive control with compound NS8593 (N-[(1R)-1,2,3,4-tetrahydro-1-naphthalenyl]-1H-benzimidazol-2-amine) (1 μM). Data were sampled at 10 kHz, 4th order Bessel filter, cut-off frequency 3 kHz. Currents were compensated for run-down. Potency was quantified as the concentration needed to inhibit half of the SK channel activity and reported as an IC50 value. All effects of compounds of the present invention as tested were normalized to the observed inhibitory effect of N-methyl bicuculline.

| SMILES | IC50 |
| --- | --- |
| CNC(=O)C(C)(Nc1nc2ccccc2[nH]1)c1cccc(C(F)(F)F)c1 (single isomer, unassigned; (+)) [Example 26a, (+)-2-[(1H-1,3-benzodiazol-2-yl)amino]-N-methyl-2-[3-(trifluoromethyl)phenyl]propanamide] | < 10 µM |
| CN(C)C(=O)C(Nc1nc2ccccc2[nH]1)c1cccc(C(F)(F)F)c1 (single isomer, unassigned; (-)) [Example 1a, (−)2-[(1H-1,3-benzodiazol-2-yl)amino]-N,N-dimethyl-2-[3-(trifluoromethyl)phenyl]acetamide] | < 10 µM |
| CNC(=O)CC(Nc1nc2ccccc2[nH]1)c1cccc(C(F)(F)F)c1 (single isomer, unassigned; (-)) [Example 2a, (−)3-[(1H-1,3-benzodiazol-2-yl)amino]-N-methyl-3-[3(trifluoromethyl)phenyl]propanamide] | < 10 µM |
| CNC(=O)CCC(Nc1nc2ccccc2[nH]1)c1cccc(C(F)(F)F)c1 (single isomer, unassigned; (-)) [Example 25a, (−)-4-[(1H-1,3-benzodiazol-2-yl)amino]-N-methyl-4-[3-(trifluoromethyl)phenyl]butanamide] | < 10 µM |
| CN(C)C(=O)C(Nc1nc2ccccc2[nH]1)c1cccc(C(F)(F)F)c1 (centres unmarked) [Example 1, 2-[(1H-1,3-benzodiazol-2-yl)amino]-N,N-dimethyl-2-[3-(trifluoromethyl)phenyl]acetamide] | < 10 µM |
| CNC(=O)CC(Nc1nc2ccccc2[nH]1)c1cccc(C(F)(F)F)c1 (centres unmarked) [Example 2, 3-[(1H-1,3-benzodiazol-2-yl)amino]-N-methyl-3-[3(trifluoromethyl)phenyl]propanamide] | < 10 µM |
| C=CCNC(=O)CC(Nc1nc2ccccc2[nH]1)c1cccc(C(F)(F)F)c1 (centres unmarked) [Example 3, 3-[(1H-1,3-benzodiazol-2-yl)amino]-N-(prop-2-en-1-yl)-3-[3-(trifluoromethyl)phenyl]propanamide] | < 10 µM |
| CNC(=O)CC(Nc1nc2c(C)c(F)ccc2[nH]1)c1cccc(C(F)(F)F)c1 (centres unmarked) [Example 4, 3-[(5-fluoro-4-methyl-1H-1,3-benzodiazol-2-yl)amino]-N-methyl-3-[3-(trifluoromethyl)phenyl]propanamide] | < 10 µM |
| CNC(=O)CC(Nc1nc2c(C)cccc2[nH]1)c1cccc(C(F)(F)F)c1 (centres unmarked) [Example 5, N-methyl-3-[(4-methyl-1H-1,3-benzodiazol-2-yl)amino]-3-[3-(trifluoromethyl)phenyl]propanamide] | < 10 µM |
| CNC(=O)CC(Nc1nc2c(CCO)cccc2[nH]1)c1cccc(C(F)(F)F)c1 (centres unmarked) [Example 6, 3-{[4-(2-hydroxyethyl)-1H-1,3-benzodiazol-2-yl]amino}-N-methyl-3-[3-(trifluoromethyl)phenyl]propanamide] | < 100 µM |
| COC(=O)C(Cc1cccc(C(F)(F)F)c1)Nc1nc2c(NC(C)=O)cccc2[nH]1 (centres unmarked) [Example 7, methyl 2-[(4-acetamido-1H-1,3-benzodiazol-2-yl)amino]-3-[3-(trifluoromethyl)phenyl]propanoate] | < 10 µM |
| CNC(=O)C(Cc1cccc(C(F)(F)F)c1)Nc1nc2ccccc2[nH]1 (centres unmarked) [Example 8, 2-[(1H-1,3-benzodiazol-2-yl)amino]-N-methyl-3-[3-(trifluoromethyl)phenyl]propanamide] | < 100 µM |
| CNC(=O)CC(Nc1nc2ccccc2[nH]1)c1cc(C)c(F)c(C)c1 (centres unmarked) [Example 9, 3-[(1H-1,3-benzodiazol-2-yl)amino]-3-(4-fluoro-3,5-dimethylphenyl)-N-methylpropanamide] | < 10 µM |
| CNC(=O)CC(Nc1nc2ccccc2[nH]1)c1ccc(Cl)c(C)c1 (centres unmarked) [Example 10, 3-[(1H-1,3-benzodiazol-2-yl)amino]-3-(4-chloro-3-methylphenyl)-N-methylpropanamide] | < 10 µM |
| CON(C)C(=O)CC(Nc1nc2ccccc2[nH]1)c1cccc(C(F)(F)F)c1 (centres unmarked) [Example 11, 3-[(1H-1,3-benzodiazol-2-yl)amino]-N-methoxy-N-methyl-3-[3-(trifluoromethyl)phenyl]propanamide] | < 10 µM |
| CNC(=O)CC(Nc1nc2ccccc2[nH]1)c1cccc(SC)c1 (centres unmarked) [Example 12, 3-[(1H-1,3-benzodiazol-2-yl)amino]-N-methyl-3-[3-(methylsulfanyl)phenyl]propanamide] | < 10 µM |
| CNC(=O)CC(Nc1nc2ccccc2[nH]1)c1cccc(OC(F)(F)F)c1 (centres unmarked) [Example 13, 3-[(1H-1,3-benzodiazol-2-yl)amino]-N-methyl-3-[3-(trifluoromethoxy)phenyl]propanamide] | < 10 µM |
| Cc1c(F)ccc2[nH]c(NC(CC(N)=O)c3cccc(C(F)(F)F)c3)nc12 (centres unmarked) [Example 14, 3-[(5-fluoro-4-methyl-1H-1,3-benzodiazol-2-yl)amino]-3-[3-(trifluoromethyl)phenyl]propanamide] | < 10 µM |
| CC(C)CNC(=O)C(Nc1nc2ccccc2[nH]1)c1cccc(C(F)(F)F)c1 (centres unmarked) [Example 15, 2-[(1H-1,3-benzodiazol-2-yl)amino]-N-(2-methylpropyl)-2-[3-(trifluoromethyl)phenyl]acetamide] | < 10 µM |
| O=C(NC1CC1)C(Nc1nc2ccccc2[nH]1)c1cccc(C(F)(F)F)c1 (centres unmarked) [Example 16, 2-[(1H-1,3-benzodiazol-2-yl)amino]-N-cyclopropyl-2-[3-(trifluoromethyl)phenyl]acetamide] | < 10 µM |
| CNC(=O)CC(Nc1nc2cc(F)ccc2[nH]1)c1cccc(C(F)(F)F)c1 (centres unmarked) [Example 17, 3-[(5-fluoro-1H-1,3-benzodiazol-2-yl)amino]-N-methyl-3-[3-(trifluoromethyl)phenyl]propanamide] | < 10 µM |
| CNC(=O)CC(Nc1nc2cc(OC(F)(F)F)ccc2[nH]1)c1cccc(C(F)(F)F)c1 (centres unmarked) [Example 18, N-methyl-3-{[5-(trifluoromethoxy)-1H-1,3-benzodiazol-2-yl]amino}-3-[3-(trifluoromethyl)phenyl]propanamide; trifluoroacetic acid] | < 10 µM |
| CNC(=O)CC(Nc1nc2c(COC)cccc2[nH]1)c1cccc(C(F)(F)F)c1 (centres unmarked) [Example 19, 3-{[4-(methoxymethyl)-1H-1,3-benzodiazol-2-yl]amino}-N-methyl-3-[3-(trifluoromethyl)phenyl]propanamide] | < 10 µM |
| CNC(=O)CC(Nc1nc2c(Cl)cccc2[nH]1)c1cccc(C(F)(F)F)c1 (centres unmarked) [Example 20, 3-[(4-chloro-1H-1,3-benzodiazol-2-yl)amino]-N-methyl-3-[3-(trifluoromethyl)phenyl]propanamide] | < 10 µM |
| CNC(=O)CC(Nc1nc2c(CO)cccc2[nH]1)c1cccc(SC(F)(F)F)c1 (centres unmarked) [Example 21, 3-{[4-(hydroxymethyl)-1H-1,3-benzodiazol-2-yl]amino}-N-methyl-3-{3-[(trifluoromethyl)sulfanyl]phenyl}propanamide] | < 10 µM |
| CNC(=O)CC(Nc1nc2ccccc2[nH]1)c1ccc(Cl)c(Cl)c1 (centres unmarked) [Example 22, 3-[(1H-1,3-benzodiazol-2-yl)amino]-3-(3,4-dichlorophenyl)-N-methylpropanamide] | < 10 µM |
| CNC(=O)CC(Nc1nc2ccccc2[nH]1)c1cccc(C(=O)OC)c1 (centres unmarked) [Example 24, methyl 3-{1-[(1H-1,3-benzodiazol-2-yl)amino]-2-(methylcarbamoyl)ethyl}benzoate] | < 10 µM |
| CNC(=O)CCC(Nc1nc2ccccc2[nH]1)c1cccc(C(F)(F)F)c1 (centres unmarked) [Example 25, 4-[(1H-1,3-benzodiazol-2-yl)amino]-N-methyl-4-[3-(trifluoromethyl)phenyl]butanamide] | < 10 µM |
| CNC(=O)C(C)(Nc1nc2ccccc2[nH]1)c1cccc(C(F)(F)F)c1 (centres unmarked) [Example 26, 2-[(1H-1,3-benzodiazol-2-yl)amino]-N-methyl-2-[3-(trifluoromethyl)phenyl]propanamide; trifluoroacetic acid] | < 10 µM |
